The record followed here is patent US12150925B2, “Buthionine sulfoximine and a metallodrug for the treatment of cancer, HIV or a rheumatic disease” (Istituto Superiore di Sanità, priority 2017, dated 2024).

Holding throughout (assay type): cell-based
Experiment [1] concerns Supt-1 T-cells. Briefly: Viability of Supt-1 T-cells (MTS assay, FIGS. 2 and 6). The settings on record: only with 0.5 μM auranofin, with BSO (FIG. 2). On the procedure:
FIG. 2 is a graph showing the viability of Supt-1 T-cells treated with different concentrations of auranofin (AU) or buthionine sulfoximine (BSO). Viability was measured 72 hours after treatment with the drugs at the indicated concentrations with the MTS assay. Absorbance values were normalized over untreated controls and expressed as percentage. BSO=buthionine sulfoximine. Concentrations are expressed in μM. Data are expressed as mean t SEM and were analysed by the Turkey posttest following One Way ANOVA. *P<0.05; **P<0.01 ***P<0.001; ****P<0.0001. NS: non-significant. The synergistic index (SI) is expressed where significant differences exist in comparison with the single drug treatments.
FIG. 6 is a graph showing the viability of Supt-1 T-cells treated with different concentrations of cisplatin or buthionine sulfoximine (BSO). Viability was measured 72 hours after treatment with the drugs at the indicated concentrations with the MTS assay. Absorbance values were normalized over untreated controls and expressed as percentage. BSO=buthionine sulfoximine. Concentrations are expressed in μM; Asterisks show the significant differences [*q<0.05; **q<0.01; q is the P value corrected for multiple comparisons by controlling the False Discovery Rate (threshold for significance=q=0.05)]. NS: non-significant. The synergistic index (SI) is expressed where significant differences exist in comparison with the single drug treatments.
In-vitro activity on activated CD4^+ T-cells and leukemia/lymphoma Methods. Resting CD4^+ T-cells, cultured T-cell leukemic Jurkat cells and Sup-T1 cells were left untreated or incubated for 24-72 hours with various concentrations of auranofin and/or buthionine sulfoximine (BSO), or chloroquine (only CD4^+ T-cells) or cisplatin (only Jurkat and Supt-T1 cells) CD4^+ T-cells were then activated by adding phytohemagglutinin (2 μg/mL). Alternatively, CD4^+ T-cells were first activated with anti-CD3/anti-CD28 beads and, after 72 hours, were left untreated or were incubated with auranofin and/or buthionine sulfoximine (BSO), or chloroquine. Cell viability was determined 24-72 hours post-activation with an MTT assay (CellTiter 96@ Non-Radioactive Cell Proliferation Assay) or MTS assay (CellTiter 960 AQueous One Solution Cell Proliferation Assay System; Promega). For the assay, 300×10^5 cells were re-suspended in 100 μL of medium and transferred to a 96-well plate. Cells were then incubated with 20 μL of a substrate solution (One Solution Reagent) for 3-4 hours in a CO2 (5%) incubator at 37° C. For the MTT assay, 100 μL of a Solubilization/Stop Solution were used to stop the reaction. Medium-only containing wells were included to serve as a blank control. Absorbance levels were recorded at 490 nm (MTS) or 570 nm (MTT) and, after subtraction of the blank, absorbance values were expressed as percentage of controls.
Results. The results from the new dosage combinations were compared to the untreated cells as well as the cells treated with single drugs or “classical” dosages, in a multiple comparison analysis. Thus, the statistical significances shown are also significant compared to the untreated cells.
For orientation: Tetrazolium assays rely on reduction of a dye to a coloured formazan, in cell work by metabolically active cells.

Experiment [2] has as its system Supt-1 T-cells. Briefly: Microphotographs of treated Supt-1 T-cells (FIG. 3). To be noted: 0.25 μM auranofin with submicromolar BSO (FIG. 3). The source says:
FIG. 3 is microphotographs of Supt-1 T-cells treated with different concentrations of auranofin or buthionine sulfoximine.

Another experiment relates to Jurkat T-cells. Put plainly: Microphotographs of treated Jurkat T-cells (FIG. 5). The settings on record: auranofin at a clinically-acceptable concentration added to BSO and cisplatin (FIG. 5). The source says: FIG. 5 is microphotographs of Jurkat T-cells treated with different concentrations of cisplatin, auranofin or buthionine sulfoximine (BSO).

`CC(=O)OC[C@H]1O[C@@H]([S-])[C@H](OC(C)=O)[C@@H](OC(C)=O)[C@@H]1OC(C)=O.CCP(CC)CC.[Au+]` [auranofin]: the “synergism in terms of cell viability” value in the experiment on Supt-1 T-cells [1] was “significant synergism”. Further, the cell morphology result in the experiment on Supt-1 T-cells [2] is reported as “morphological alterations linked to poor lymphoblastic cell viability”; in the experiment on Jurkat T-cells it was “increased the aforementioned morphological alterations”.
